The subject of data set [1] is RAW264.7. In words: Inhibition of LPS-induced iNOS expression in mouse RAW264.7 cells at preincubated for 1 hr followed by LPS stimulation and measured after 24 hrs by Western blot analysis. The data set is classed as functional, cell-based.
Data set [2] deals with RAW264.7. In words: Inhibition of LPS-induced IL-1beta production in mouse RAW264.7 cells preincubated for 1 hr followed by LPS stimulation and measured after 24 hrs by ELISA. The data set is classed as functional, cell-based.
Data set [3] deals with RAW264.7. Put plainly: Inhibition of LPS-induced NO production in mouse RAW264.7 cells preincubated for 1 hr followed by LPS stimulation and measured after 24 hrs by Griess reagent based assay. The data set is classed as functional, cell-based.
For data set [4], the system named is RAW264.7. In words: Inhibition of LPS-induced degraded IkappaBalpha regeneration in mouse RAW264.7 cells at 10 uM measured upto 90 mins by Western blot analysis. The data set is classed as functional, cell-based. Background: In western blotting, separated proteins are transferred to a membrane and probed.
Data set [5] relates to RAW264.7. Put plainly: Inhibition of LPS-induced TNFalpha production in mouse RAW264.7 cells at 1 to 30 uM preincubated for 1 hr followed by LPS stimulation and measured after 24 hrs by ELISA. The data set is classed as functional, cell-based.
Data set [6] deals with RAW264.7. In words: Inhibition of LPS-induced IL-6 production in mouse RAW264.7 cells at 1 to 30 uM preincubated for 1 hr followed by LPS stimulation and measured after 24 hrs by ELISA. The data set is classed as functional, cell-based.
The test system of data set [7] is RAW264.7. Put plainly: Cytotoxicity against mouse RAW264.7 cells assessed as reduction in cell viability upto 30 uM incubated for 24 hrs in presence of LPS by MTT assay. The data set is classed as cell-based. The note with it: raw264.7, 24 h. (In general: Tetrazolium dyes change colour on reduction, which living cells bring about.)
Data set [8] deals with RAW264.7. In words: Inhibition of LPS-induced IkappaBalpha degradation in mouse RAW264.7 cells at 1 to 30 uM incubated for 30 mins by Western blot analysis. The data set is classed as functional, cell-based.
Data set [9] has as its system RAW264.7. In words: Inhibition of LPS-induced NO production in mouse RAW264.7 cells at 0.1 to 10 uM preincubated for 1 hr followed by LPS stimulation and measured after 24 hrs by Griess reagent based assay. The data set is classed as functional, cell-based.
The test system of data set [10] is RAW264.7. Put plainly: Inhibition of LPS-induced IkappaBalpha degradation in mouse RAW264.7 cells at 1 uM incubated for 30 mins by Western blot analysis. The data set is classed as functional, cell-based.
The test system of data set [11] is RAW264.7. Put plainly: Inhibition of LPS-induced TNFalpha production in mouse RAW264.7 cells at 1 uM preincubated for 1 hr followed by LPS stimulation and measured after 24 hrs by ELISA. The data set is classed as functional, cell-based. In general terms: In an ELISA, binding on a coated surface is turned into a signal by an enzyme label.
In data set [12] the test system is RAW264.7. In words: Inhibition of LPS-induced IL-6 production in mouse RAW264.7 cells at 1 uM preincubated for 1 hr followed by LPS stimulation and measured after 24 hrs by ELISA. The data set is classed as functional, cell-based.
The subject of data set [13] is RAW264.7. In words: Inhibition of LPS-induced IL-1beta production in mouse RAW264.7 cells at 1 uM preincubated for 1 hr followed by LPS stimulation and measured after 24 hrs by ELISA. The data set is classed as functional, cell-based.
The subject of data set [14] is RAW264.7. In words: Inhibition of LPS-induced iNOS expression in mouse RAW264.7 cells at 1 uM preincubated for 1 hr followed by LPS stimulation and measured after 24 hrs by Western blot analysis relative to control. The data set is classed as functional.

Active and inactive are the calls of the source. The rule behind the calls is not given here. Where a SMILES comes first, the peptide text is derived from it. Bridges are numbered along the chain shown (N, C = ends). [ ]: non-standard residue; d: D form. The star is where a group is joined. NMeF = CN[C@@H](Cc1ccccc1)C(=O)O; NMeV = CN[C@H](C(=O)O)C(C)C; X2 = CC[C@H](C)CCCCC(=O)*; dDab = NCC[C@@H](N)C(=O)O; Dab = NCC[C@H](N)C(=O)O; Butyryl = CCCC(=O)*; X1 = CN(Cc1nccs1)*

One may read the inhibition as the change of the read-out against control, counted positive when it falls. For orientation: IC50 means the concentration that inhibits the measured activity by half. A higher IC50 goes with lower potency. Consider `CCCC(=O)N(C)[C@H](C(=O)N1CCC[C@H]1C(=O)N(C)[C@@H](Cc1ccccc1)C(=O)N[C@@H](CC(C)C)C(=O)N(C)[C@H](C(=O)N(C)Cc1nccs1)C(C)C)C(C)C` (Butyryl-[NMeV]P[NMeF]L[NMeV]-X1), for which the inhibition result in data set [1], in data set [2] and in [3] was “Dose-dependent effect” in each case. In addition, the IC50 is 14.5 µM in data set [2] and 6.47 µM in [3]. Besides, in data set [4], the inhibition result is “Active”. Further, the inhibition entry in data set [5], in data set [6] and in [8] was “inactive” throughout. Moreover, the Activity result in data set [7] is on record as “Non-Toxic”.

On to `CC[C@H](C)CCCCC(=O)N[C@@H](CCN)C(=O)N[C@H](C(=O)N[C@@H](CCN)C(=O)N[C@H]1CCNC(=O)[C@H]([C@@H](C)O)NC(=O)[C@H](CCN)NC(=O)[C@H](CCN)NC(=O)[C@H](CC(C)C)NC(=O)[C@@H](Cc2ccccc2)NC(=O)[C@@H](CCN)NC1=O)[C@@H](C)O` (X2-[Dab]T[Dab][Dab][dDab][dF]L[Dab][Dab]T; lactam 4-C), for which the inhibition entry in [9], in data set [10], in [11], in data set [12] and in [13] was “Active” throughout.

In the case of `CC[C@H](C)CCCCC(=O)N[C@@H](CCN)C(=O)N[C@H](C(=O)N[C@@H](CCN)C(=O)N[C@H]1CCNC(=O)[C@H]([C@@H](C)O)NC(=O)[C@H](CCN)NC(=O)[C@H](CCN)NC(=O)[C@H](CC(C)C)NC(=O)[C@@H](Cc2ccccc2)NC(=O)[C@H](CCN)NC1=O)[C@@H](C)O` (X2-[Dab]T[Dab][Dab][Dab][dF]L[Dab][Dab]T; lactam 4-C), the inhibition at 1 µM in data set [14] came to 100%.

(Values after ChEMBL document CHEMBL4627336, “Inhibitory effects of biseokeaniamide A against lipopolysaccharide-induced signal transduction” (Bioorg Med Chem Lett, 2020).)
